Measurements as given in patent US11318190B2, “Methods and compositions for treating liver disease” (UNITED STATES GOVERNMENT AS REPRESENTED BY THE DEPARTMENT …, priority 2017, dated 2022).

Legend:
HHSteCs [1] = test: HHSteCs incubated with biliary/IMCL supernatants with/without LY2109761, or with TGF-β1 (Example 2); type: cell-based, human
Experimental: (§1) Biliary supernatants were obtained from normal and BDL WT mice and Sct^−/−, SR^−/− and Sct^−/−/SR^−/− BDL mice as well as normal WT mice treated with saline or secretin. HHSteCs were incubated with the aforementioned biliary supernatants (containing different levels of TGF-β1) for 24 hr (in the absence or presence of LY2109761) before measuring the expression of senescence and fibrosis genes by real-time PCR. Furthermore, HHSteCs were incubated with the supernatant of large IMCLs treated for 0.2% bovine serum albumin (basal) or secretin (10 nM) with/without LY2109761 for 6 hr before measuring the mRNA expression of fibrosis and senescence genes. To provide direct evidence that TGF-β1 directly modulates fibrosis and senescence of IMCLs and HHSteCs, these cells were stimulated with TGF-β1 (10 nM) for 24 hr before measuring the expression of PCNA as well as fibrosis and senescence genes by real-time PCR.

large IMCLs = test: Large IMCLs treated with secretin with/without LY2109761, or with TGF-β1 (Example 2); type: cell-based, mouse
Text: Cholangiocytes were obtained by immunoaffinity separation as described herein above, using a monoclonal antibody (a gift from Dr. R. Faris, Brown University, Providence, R.I.) that is expressed by all intrahepatic cholangiocytes. HSCs from the selected groups of mice were isolated by LCM as described previously in Wu, N et al., The secretin/secretin receptor axis modulates liver fibrosis through changes in transforming growth factor-beta1 biliary secretion in mice, Hepatology (Baltimore, Md.) 64(3):865-879 (2016). Briefly, frozen liver sections (n=3, 10 μm thick) were incubated overnight with an anti-desmin (a marker of stellate cells) antibody. Then, desmin-positive cells were dissected from the slides using a LCM system Leica LMD7000 (Buffalo Grove, Ill.) and were collected before RNA extraction with the Arcturus PicoPure RNA isolation kit (Thermo Fisher Scientific CO, Mountain View, Calif.). The in vitro studies were performed in: (I) immortalized murine cholangiocyte lines derived from large cholangiocytes lining large ducts (IMCLs); and (ii) human hepatic stellate cell lines (HHSteCs; ScienCell Research Laboratories, Carlsbad, Calif.).
WT mice were treated for 1 wk with saline or secretin (Sct; 2.5 nmoles/kg body weight per day) before collecting cholangiocytes, HSCs and cholangiocyte supernatants. The levels of TGF-β1 were measured in short-term (6-hour) cultures of cholangiocytes by ELISA kits. Subsequently, we measured: (i) liver fibrosis by immunofluorescence for Col1a1 in liver sections and real-time PCR for TGF-β1, TFG-β1R, Col1a1, α-SMA and Fn1 in cholangiocytes and HSCs; and (ii) cellular senescence by immunofluorescence in liver sections for p16 and real-time PCR for p16 and p21 in cholangiocytes and HSC.
as §1

HHSteCs [2] = test: HHSteCs treated with cholangiocyte supernatants with/without LY2109761, TGF-β1 or r-VEGFA (Example 4); type: cell-based, human; settings: 12 hr
Experimental: (§2) Cholangiocytes were obtained by immunoaffinity separation, Cholangiocytes were obtained by immunoaffinity separation as described herein above, using a monoclonal antibody (a gift from Dr. R. Faris, Brown University, Providence, R.I.) that is expressed by all intrahepatic cholangiocytes. Cell viability (greater than 97%) was assessed by trypan blue exclusion. HSCs were isolated by LCM as described herein above. Frozen liver sections (n=3, 10 μm thick) were incubated overnight with an antibody against desmin (marker of stellate cells). Following staining, desmin-positive HSCs were dissected from the slides by a LCM system Leica LMD7000 (Buffalo Grove, Ill.) and collected into a PCR tube before being analyzed. The RNA from HSCs was extracted with the Arcturus PicoPure RNA isolation kit (Thermo Fisher Scientific CO, Mountain View, Calif.). The in vitro studies were performed in our immortalized murine biliary cell lines (IMCLs) and human hepatic stellate cell lines (HHSteCs, Sciencell, Carlsbad, USA).
In biliary supernatants, the levels of TGF-β1 were measured by ELISA kits. HHSteCs were incubated with cholangiocyte supernatants from the selected groups of animals for 12 hr (in the absence or presence of LY2109761, 10 μM, a TGF-β1 receptor antagonist, Cayman Chemical, Ann Arbor, Mich.) before measuring the expression of VEGF-A and senescent and fibrosis genes by qPCR. To determine that Sct increases TGF-β1 levels by a microRNA 125b-dependent mechanism, IMCLs were treated with Sct (10 nM in the absence/presence of a microRNA 125b mimic precursor, 5 μM) for 12 hr before measuring TGF-β1 mRNA expression (by qPCR) and secretion by ELISA kits. To provide conclusive evidence that TGF-β1 directly modulates the function IMCLs and HHSteCs, these cells were stimulated with TGF-β1 (10 nM) for 12 hr before measuring the expression of VEGF-A and senescent and fibrosis genes by qPCR. […] We also evaluated by immunofluorescence the expression of VEGFR-2 in cell smears of IMCLs and HHSteCs. […]

TGF-β receptor type II = TGF-β receptor type II (Homo sapiens, UniProt P37173); settings: cited from earlier work
Sequence of TGF-β receptor type II (P37173 23-567): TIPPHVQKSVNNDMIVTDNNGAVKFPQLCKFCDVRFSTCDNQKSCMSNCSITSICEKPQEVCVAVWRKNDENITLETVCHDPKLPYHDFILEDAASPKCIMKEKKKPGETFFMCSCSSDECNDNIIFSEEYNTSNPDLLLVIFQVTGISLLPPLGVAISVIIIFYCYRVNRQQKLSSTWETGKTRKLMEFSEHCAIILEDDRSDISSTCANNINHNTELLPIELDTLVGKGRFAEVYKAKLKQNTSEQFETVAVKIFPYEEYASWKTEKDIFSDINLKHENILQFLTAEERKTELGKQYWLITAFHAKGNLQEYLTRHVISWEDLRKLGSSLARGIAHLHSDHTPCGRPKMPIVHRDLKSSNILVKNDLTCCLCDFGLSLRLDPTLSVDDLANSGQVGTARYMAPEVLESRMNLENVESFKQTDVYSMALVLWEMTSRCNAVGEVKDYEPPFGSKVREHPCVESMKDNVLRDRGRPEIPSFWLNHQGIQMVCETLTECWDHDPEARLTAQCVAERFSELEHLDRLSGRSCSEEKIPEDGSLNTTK

IMCLs = IMCLs treated with Sct with/without microRNA 125b mimic precursor, TGF-β1 or r-VEGFA (Example 4); type: cell-based, mouse; settings: TGF-β1 10 nM or r-VEGFA 100 nM, 12 hr
Experimental: as §2
In biliary supernatants, the levels of TGF-β1 were measured by ELISA kits. […] We also evaluated by immunofluorescence the expression of VEGFR-2 in cell smears of IMCLs and HHSteCs. […]

c1ccc(-c2nn3c(c2-c2ccnc4cc(OCCN5CCOCC5)ccc24)CCC3)nc1 [LY2109761]
effect of preincubation on fibrosis/senescence gene changes in HHSteCs (HHSteCs [1]; before supernatant from secretin-treated WT mice): reversed
effect of preincubation on fibrosis/senescence gene changes of HHSteCs (HHSteCs [1]; supernatant of secretin-treated large IMCLs): reversed
effect of preincubation on secretin-induced TGF-β1 secretion and fibrosis/senescence genes of large IMCLs (large IMCLs; LY2109761 10 nM): prevented
effect of preincubation on VEGF-A, fibrosis and senescence gene changes in HHSteCs (HHSteCs [2]; LY2109761 10 μM, cholangiocyte supernatants from Mdr2−/− mice): reversed
Ki (TGF-β receptor type II): 300 nM

TGF-β1: transforming growth factor-β1 used to stimulate IMCLs and HHSteCs (10 nM)
fibrosis gene expression in HHSteCs (HHSteCs [1]; direct TGF-β1 10 nM, 24 hr): stimulates
senescence gene expression in HHSteCs (HHSteCs [1]; direct TGF-β1 10 nM, 24 hr): reduces
PCNA mRNA expression of large IMCLs (large IMCLs; TGF-β1 10 nM, 24 hr): decreased
expression of fibrosis and senescence genes of large IMCLs (large IMCLs; TGF-β1 10 nM, 24 hr): increased
expression of VEGF-A, fibrosis genes in HHSteCs (HHSteCs [2]; TGF-β1 10 nM or r-VEGFA 100 nM): increased
senescence genes in HHSteCs (HHSteCs [2]; TGF-β1 10 nM or r-VEGFA 100 nM): decreased
expression of VEGF-A, fibrosis and senescence genes in IMCLs (IMCLs): increased
